For ten compounds, normalised viability results are on record in the supplement of paper PMC4862054.

Holding throughout (assay): normalised viability (% of control), CellTiter-Blue; higher = more viable cells (about 100 = DMSO control)
Conditions in all cases: incubation time: 72 h

One assay relates to CAL-85-1. The method, then:
(§1)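 DSRT, CellTiter-Blue viability, 72 h incubation. Signal is normalised to DMSO and benzethonium chloride controls. Value is the normalised response at dose 6.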

A further assay concerns DU-4475. The method, then: as §1
The subject of a further assay is CAL-51. The method, then:
as §1

In a further assay the test system is HDQ-P1. The protocol:
as §1

A further assay relates to MDA-MB-453. The protocol:
as §1

For a further assay, the system named is CAL-148. The method, then:
as §1

Molecules are shown by their SMILES. Where “and” joins values, the source holds several entries; their conditions need not be identical. Equal values may be shown once.

`CC(C)C[C@H](NC(=O)[C@@H](COC(C)(C)C)NC(=O)[C@H](Cc1ccc(O)cc1)NC(=O)[C@H](CO)NC(=O)[C@H](Cc1c[nH]c2ccccc12)NC(=O)[C@H](Cc1cnc[nH]1)NC(=O)[C@@H]1CCC(=O)N1)C(=O)N[C@@H](CCCNC(=N)N)C(=O)N1CCC[C@H]1C(=O)NNC(N)=O` [Goserelin] (300 nM): the normalised viability with CAL-85-1 was 99.7%; in the assay on DU-4475, 106%; with CAL-51 it was 108%; in the assay with HDQ-P1, 91.4%; in the assay on MDA-MB-453, 106%; with CAL-148, 104%.

Take `CC(O)(CS(=O)(=O)c1ccc(F)cc1)C(=O)Nc1ccc(C#N)c(C(F)(F)F)c1` (stereo not given) [Bicalutamide] (300 nM): the normalised viability with CAL-85-1 is 95%; in the assay on DU-4475, 93.6%; with CAL-51, 108%; in the assay with HDQ-P1, 55%; in the assay on MDA-MB-453, 110%; in the assay on CAL-148, 107%.

In the case of `CCNC(=O)c1noc(-c2cc(C(C)C)c(O)cc2O)c1-c1ccc(CN2CCOCC2)cc1` [NVP-AUY922] (30 nM), the normalised viability in the assay on CAL-85-1 amounted to 30.5%; in the assay on DU-4475 it was 0.85%; in the assay with CAL-51, 29.4%; with HDQ-P1, 18%; in the assay with MDA-MB-453, 9.09%; with CAL-148, 16%.

For the compound `Nc1ccn([C@@H]2O[C@H](CO)[C@@H](O)C2(F)F)c(=O)n1` [Gemcitabine] (30 nM), the normalised viability worked out at 58.7% in the assay with CAL-85-1; 72.8% in the assay on DU-4475; 42.9% in the assay with CAL-51; 74% with HDQ-P1; 60.2% in the assay on MDA-MB-453; 42.1% in the assay on CAL-148.

In the case of `CCN(CC)CCCC(C)Nc1ccnc2cc(Cl)ccc12` (stereo not given) [Chloroquine] (29.7 nM), the normalised viability came out at 92.7% in the assay on CAL-85-1; 116% with DU-4475; 88.5% in the assay on CAL-51; 123% in the assay on HDQ-P1; 98.8% in the assay with MDA-MB-453; 89.9% in the assay with CAL-148.

Take `CC1(C)CCC(c2ccc(Cl)cc2)=C(CN2CCN(c3ccc(C(=O)NS(=O)(=O)c4ccc(N[C@H](CCN5CCOCC5)CSc5ccccc5)c(S(=O)(=O)C(F)(F)F)c4)cc3)CC2)C1` [Navitoclax] (300 nM): the normalised viability in the assay on CAL-85-1 was determined as 75.2%; in the assay on DU-4475, 47.2%; with CAL-51 it was 99.9%; in the assay on HDQ-P1, 50.2%; in the assay on MDA-MB-453 it was 78.1%; with CAL-148, 90.4%.

Turning to `CC[C@H](CO)Nc1nc(NCc2ccccc2)c2ncn(C(C)C)c2n1` [Roscovitine] (300 nM), the normalised viability in the assay on CAL-85-1 is 93.7%; in the assay on DU-4475, 97.5%; in the assay with CAL-51, 104%; in the assay on HDQ-P1, 59.7%; in the assay on MDA-MB-453, 86.9%; with CAL-148, 88.6%.

For `C/C(=C\c1csc(C)n1)[C@@H]1C[C@@H]2O[C@]2(C)CCC[C@H](C)[C@H](O)[C@@H](C)C(=O)C(C)(C)[C@@H](O)CC(=O)N1` [Ixabepilone] (30 nM), the normalised viability in the assay with CAL-85-1 amounted to 85%; with DU-4475, 88.9%; in the assay on CAL-51, 103%; in the assay on HDQ-P1, 71.6%; in the assay on MDA-MB-453, 102%; in the assay with CAL-148 it was 99.2%.

With `Cc1cn(-c2cc(NC(=O)c3ccc(C)c(Nc4nccc(-c5cccnc5)n4)c3)cc(C(F)(F)F)c2)cn1` [Nilotinib] (300 nM), the normalised viability was 92.1% and 86% in the assay on CAL-85-1; 90.1% and 113% in the assay with DU-4475; 109% and 112% with CAL-51; 47.2% and 70.8% with HDQ-P1; 94.5% and 91.4% in the assay with MDA-MB-453; 94.6% and 101% with CAL-148.

Turning to `CO[C@@]12[C@H](COC(N)=O)C3=C(C(=O)C(C)=C(N)C3=O)N1C[C@@H]1N[C@@H]12` [Mitomycin C] (300 nM), the normalised viability was 98.7% in the assay with CAL-85-1; 86% in the assay on DU-4475; 102% in the assay with CAL-51; 83.7% in the assay with HDQ-P1; 110% in the assay with MDA-MB-453; 105% in the assay with CAL-148.
